From patent EP0922458A1, “Potentiation of temozolomide by an ATase inhibitor” (CANCER RESEARCH CAMPAIGN TECHNOLOGY LIMITED, priority 1993, dated 1994)
Where two headings read alike, the source gives them in different places.

Columns and labels:
[1] = tested on: SF767 cells; conditions: WO 91/13898; cited from earlier work
[2] = Stability in tissue culture medium (HPLC analysis); format: physicochemical; conditions: 37°C
[3] = biological target: T1, O^6-alkylguanine DNA alkyltransferase (ATase) (Homo sapiens, UniProt P16455); assay: O^6-alkylguanine DNA alkyltransferase assay of treated cells; format: cell-based; conditions: for ATase content after BG: concentrations of BG used; for IC50: three-hour incubation, read-out: concentration causing 50% reduction in ATase content
T1 construct: endogenous in cells; host or cells: human tumour cell lines U373, MCF-7, LOVO, MAWI (extracts of treated cells)
T1 sequence (P16455 1-207): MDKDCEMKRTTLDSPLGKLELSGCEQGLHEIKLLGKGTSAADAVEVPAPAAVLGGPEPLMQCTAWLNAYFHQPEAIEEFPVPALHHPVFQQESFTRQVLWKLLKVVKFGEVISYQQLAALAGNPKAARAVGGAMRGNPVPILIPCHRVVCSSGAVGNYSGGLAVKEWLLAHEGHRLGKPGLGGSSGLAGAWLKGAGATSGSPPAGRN
Protocol: This assay was carried out as described by Lee et al., Cancer Res., 51:619 (1991). Thus, varying amounts of cell extracts are incubated with DNA which contains O^6-methylguanine labelled with [^3H] in the methyl group, at preferably 37°C for 2 hours in a total volume of 300 µl of 1 mg/ml of bovine serum albumin in buffer 1. After incubation, bovine serum albumin (100µl of a 10 mg/ml solution in buffer 1) and perchloric acid (100µl of a 4 M solution) are added in rapid succession. A further 2 ml of 1M perchloric is added and the mixture heated at 75°C for 40 minutes to degrade the DNA to acid soluble material. The protein, which contains the methylated ATase, is then collected by centrifugation, washed with 4ml of 1M perchloric acid before being resuspended in 300 µl of 0.01M sodium hydroxide and dissolved in 3ml of aqueous scintillation fluid (Ecoscint A: National Diagnostics), and counted. The protein content of the cells was determined with a BioRad protein assay kit using bovine serum albumin as a standard. ATase activity is expressed as fmol methyl transferred to protein per mg of total protein in the extract.

[4] = tested on: control XP cells (pZip); assay: Cytotoxicity in XP lines (MTT assay); format: cell-based; conditions: for IC50: 120 h, XP line with ATase < 2 fmol/mg protein (control pZip; printed on the line 'phAT'), MTT assay, 5 days, without BG; for sensitivity of control XP cells relative to human ATase cDNA-transfected cells: pZip versus phAT XP cells, Table I
Protocol: (§1) Human ATase cDNA-transfected or control XP cells [Fan et al., Nucleic Acid. Res., 18:5723 (1990)] were grown in MEM and 1000 cells/well were plated. After a 3 hour incubation, temozolomide, freshly diluted into MEM, was added and the plates incubated for 5 days. Survivals were assayed as described by Morten et al., Carcinogenesis, 13:483 (1992). In the BG experiments, 300 cells were plated in triplicate onto 9cm plates and allowed to attach for 5 hours. BG was added (10 µM in MEM) 3 hours prior to the treatment with temozolomide which was freshly diluted into MEM containing 10 µM BG. After 7 days, colonies were strained with Giemsa and counted.

[5] = tested on: human ATase cDNA-transfected XP cells (phAT); assay: Cytotoxicity in XP lines (MTT assay); format: cell-based; conditions: 120 h, XP line with ATase 1240 fmol/mg protein (phAT; printed on an unlabelled line), 5 days, without BG
Protocol: as §1

[6] = tested on: ZR-75-1; assay: Single dose cytotoxicity (sulphorhodamine protein assay); format: cell-based, human; conditions: for IC50: Homo sapiens, ZR-75-1 (breast), 1 hour drug; for Ratio IC50 [-BG]/IC50 [+BG]: ZR-75-1
Protocol: (§2) Cell lines were routinely grown as monolayers in DMEM supplemented with 10% foetal calf serum, 25mM HEPES, glutamine and penicillin/streptomycin. Cytotoxicity studies were carried out in HEPES-free medium in a 5% CO2 atmosphere. 750-1000 cells/well were plated in 96 well plates and, after overnight incubation, were treated for 2 hours with or without 33 µM BG. Temozolomide or CCNU was then added for 1 hour in the same medium, the final DMSO concentration not exceeding 1%. […] For the repeat temozolomide dozing schedule, cells were given consecutive 24 hour treatments, with fresh medium each day. Assays were carried out at least in duplicate.

[7] = tested on: MCF-7; assay: as above; format: cell-based, human; conditions: for IC50: Homo sapiens, MCF7, MCF-7 (breast), 1 hour drug; for Ratio IC50 [-BG]/IC50 [+BG]: MCF-7
Protocol: as §2

[8] = tested on: LOVO; assay: as above; format: cell-based, human; conditions: for IC50: Homo sapiens, LOVO (colo-rectal), 1 hour drug; for Ratio IC50 [-BG]/IC50 [+BG]: LOVO
Protocol: as §2

[9] = tested on: U87MG; assay: as above; format: cell-based, human; conditions: for IC50: Homo sapiens, U-87 MG, U87MG (astrocytoma), 1 hour drug; for Ratio IC50 [-BG]/IC50 [+BG]: U87MG
Protocol: as §2

[10] = tested on: MAWI; assay: as above; format: cell-based, human; conditions: for IC50: Homo sapiens, MAWI (colo-rectal), 1 hour drug; for Ratio IC50 [-BG]/IC50 [+BG]: MAWI
Protocol: as §2

[11] = tested on: U373; assay: as above; format: cell-based, human; conditions: for IC50: Homo sapiens, U373 MG, U373 (astrocytoma), 1 hour drug; for Ratio IC50 [-BG]/IC50 [+BG]: U373
Protocol: as §2

[12] = tested on: LS174T; assay: as above; format: cell-based, human; conditions: for IC50: Homo sapiens, LS174T (colo-rectal), 1 hour drug; for Ratio IC50 [-BG]/IC50 [+BG]: LS174T
Protocol: as §2

[13] = tested on: human tumour cell lines; assay: Single dose cytotoxicity, summary over the tumour cell lines; format: cell-based
Protocol: as §2

[14] = tested on: U373; assay: Repeated dose temozolomide cytotoxicity; format: cell-based, human; conditions: for IC50: Homo sapiens, U373 MG, U373, DAY 4 of repeated daily 24 hour doses
Protocol: as §2

[15] = tested on: MCF-7; assay: Repeated dose temozolomide cytotoxicity; format: cell-based; conditions: Homo sapiens
Protocol: as §2

[16] = tested on: MAWI; assay: Repeated dose temozolomide cytotoxicity; format: cell-based; conditions: Homo sapiens
Protocol: as §2

[17] = tested on: control XP cells; assay: Colony forming assay with BG pretreatment; format: cell-based; conditions: 10 µM BG 3 hours before, colonies after 7 days
Protocol: as §1

[18] = tested on: ZR-75-1; assay: Cellular uptake of [^14C]-labelled temozolomide; format: in vitro ADME, human; conditions: 4°C, 200 µM labelled drug
Protocol: (§3) 8-carbamoyl-3-[^14C]methylimidazo[5,1-d]-1,2,3,5-tetrazin-4-(3H)-one (specific activity 26.3mCi/mmole) was kindly supplied by Dr. John Slack (Aston Molecules Ltd, Birmingham, UK). Cell suspensions (5 x 10^6/ml) were equilibrated at 4°C and treated with 200 µM of the labelled drug. 10^6 cells were pipetted into eppendorf tubes and centrifuged through 250µl of an oil mixture (4:1 "Three-in-One"/Dow Corning silicone oil). The aqueous layer was aspirated and the oil layer gently washed with a further 300 µl of saline. After centrifugation both layers were aspirated, the cell pellet dissolved in a tissue solubilizer such as Protosol® (quaternary ammonium hydroxide in toluene) and added to scintillation vials containing Optiphase® (95-99% diisopropylnaphthalene).

[19] = tested on: MAWI; assay: Cellular uptake of [^14C]-labelled temozolomide; format: in vitro ADME, human; conditions: 4°C, 200 µM labelled drug
Protocol: as §3

In the case of `CC1CCC(NC(=O)N(CCCl)N=O)CC1` (stereo not drawn) [Me CCNU], the “decrease in the ED50 when combined with O^6-benzylguanine” value [1] is listed as 3.8 fold.
For `Nc1nc(OCc2ccccc2)c2[nH]cnc2n1` [BG, O^6-benzylguanine], the “stable in tissue culture medium” value [2] was “at least 24 hours”, the “ATase content after BG” value ([3]; MAWI cells) was “undetectable level” and the “ATase content after BG” value ([3]; human ATase cDNA transfected XP fibroblasts) was “undetectable level”.
With `NC(=O)c1ncn2c(=O)n(CCCl)nnc12` [mitozolomide, 8-carbamoyl-3-(2-chloroethyl)imidazo[5,1-d]-1,2,3,5-tetrazin-4-(3H)-one] the IC50 [4] was 0.8 µM, the “sensitivity of control XP cells relative to human ATase cDNA-transfected cells” value [4] was 4-5 fold and the IC50 [5] was 4.2 µM.
In the case of `O=NN(CCCl)C(=O)NC1CCCCC1` [CCNU, lomustine], the IC50 ([6]; 2 hours 33 µM BG before) is reported as 25 µM, the IC50 ([6]; without BG) is reported as 12 µM and the “Ratio IC50 [-BG]/IC50 [+BG]” value [6] is reported as 0.5. For the same molecule, the IC50 ([7]; 2 hours 33 µM BG before) was 31 µM, the IC50 ([7]; without BG) was 70 µM and the “Ratio IC50 [-BG]/IC50 [+BG]” value [7] was 2.2. The IC50 ([8]; 2 hours 33 µM BG before) was 32 µM, the IC50 ([8]; without BG) was 92 µM and the “Ratio IC50 [-BG]/IC50 [+BG]” value [8] was 2.9. For the same molecule, the IC50 ([9]; 2 hours 33 µM BG before) was 8.8 µM, the IC50 ([9]; without BG) was 28 µM and the “Ratio IC50 [-BG]/IC50 [+BG]” value [9] was 3.2. The IC50 ([10]; 2 hours 33 µM BG before) was 30 µM, the IC50 ([10]; without BG) was 133 µM and the “Ratio IC50 [-BG]/IC50 [+BG]” value [10] was 4.4. The IC50 ([11]; 2 hours 33 µM BG before) was 12 µM, the IC50 ([11]; without BG) was 15 µM and the “Ratio IC50 [-BG]/IC50 [+BG]” value [11] was 1.2. The IC50 ([12]; 2 hours 33 µM BG before) was 13 µM, the IC50 ([12]; without BG) was 73 µM and the “Ratio IC50 [-BG]/IC50 [+BG]” value [12] was 5.7. For the same molecule, the “increase in toxicity (sensitivity) after pretreatment with a single non-toxic dose of BG” value ([13]; single dose, over the tumour cell lines) was at most 6 fold and the “toxicity on a molar basis relative to temozolomide” value ([13]; slopes of IC50 versus ATase content, Figure 1) was “approximately five”.
With `Cn1nnc2c(C(N)=O)ncn2c1=O` [temozolomide, 8-carbamoyl-3-methylimidazo[5,1-d]-1,2,3,5,-tetrazin-4-(3H)-one] the IC50 [4] was 23 µM, the “sensitivity of control XP cells relative to human ATase cDNA-transfected cells” value [4] was 4-5 fold and the IC50 [5] was 100 µM. For the same molecule, the IC50 ([14]; with BG) was 18 µM, the IC50 ([14]; without BG) was 51 µM and the “potentiation of temozolomide toxicity by BG” value ([14]; U373 cells, four 24 hour doses, BG present) was 3 fold. For the same molecule, the IC50 ([15]; MCF7, 24 h, DAY 1, with BG) was 89 µM, the IC50 ([15]; MCF7, 24 h, DAY 1, without BG) was 319 µM and the IC50 ([15]; MCF7, 48 h, DAY 2, with BG) was 51 µM. The IC50 ([15]; MCF7, 48 h, DAY 2, without BG) was 319 µM, the IC50 ([15]; MCF7, 72 h, DAY 3, with BG) was 11 µM and the IC50 ([15]; MCF7, 72 h, DAY 3, without BG) was 375 µM. It also gave an IC50 ([16]; 24 h, DAY 1, with BG) of 196 µM, an IC50 ([16]; 24 h, DAY 1, without BG) of 319 µM and an IC50 ([16]; 48 h, DAY 2, with BG) of 59 µM. It also gave an IC50 ([16]; 48 h, DAY 2, without BG) of 350 µM, an IC50 ([16]; 72 h, DAY 3, with BG) of 21 µM and an IC50 ([16]; 72 h, DAY 3, without BG) of 383 µM. The IC50 ([16]; 96 h, DAY 4, with BG) was 7.2 µM, the IC50 ([16]; 96 h, DAY 4, without BG) was 383 µM and the IC50 ([16]; 120 h, DAY 5, with BG) was 1 µM. For the same molecule, the IC50 ([16]; 120 h, DAY 5, without BG) was 326 µM, the “effect of BG pretreatment on cytotoxicity of temozolomide” value [17] was “no measurable effect” and the IC50 ([6]; 2 hours 33 µM BG before) was 23 µM. For the same molecule, the IC50 ([6]; without BG) was 32 µM, the “Ratio IC50 [-BG]/IC50 [+BG]” value [6] was 1.4 and the IC50 ([7]; 2 hours 33 µM BG before) was 171 µM. For the same molecule, the IC50 ([7]; without BG) was 325 µM, the “Ratio IC50 [-BG]/IC50 [+BG]” value [7] was 1.9 and the IC50 ([8]; 2 hours 33 µM BG before) was 323 µM. The IC50 ([8]; without BG) was 848 µM, the “Ratio IC50 [-BG]/IC50 [+BG]” value [8] was 2.6 and the IC50 ([9]; 2 hours 33 µM BG before) was 131 µM. The IC50 ([9]; without BG) was 172 µM, the “Ratio IC50 [-BG]/IC50 [+BG]” value [9] was 1.3 and the IC50 ([10]; 2 hours 33 µM BG before) was 335 µM. For the same molecule, the IC50 ([10]; without BG) was 1170 µM, the “Ratio IC50 [-BG]/IC50 [+BG]” value [10] was 3.5 and the IC50 ([11]; 2 hours 33 µM BG before) was 78 µM. For the same molecule, the IC50 ([11]; without BG) was 131 µM, the “Ratio IC50 [-BG]/IC50 [+BG]” value [11] was 1.7 and the IC50 ([12]; 2 hours 33 µM BG before) was 632 µM. For the same molecule, the IC50 ([12]; without BG) was 873 µM, the “Ratio IC50 [-BG]/IC50 [+BG]” value [12] was 1.4 and the “difference in the single dose cytotoxicity between MCF-7 and the colorectal lines (LOVO and MAWI)” value ([13]; single dose) was 3-4 fold. The “time to complete uptake” value [18] was at most 5 min, the “time to complete uptake” value [19] was at most 5 min and the IC50 ([3]; LOVO) was 50 to 100 µM. It also gave an IC50 ([3]; MAWI) of 50 to 100 µM, an IC50 ([3]; MCF-7) of 50 to 100 µM and an IC50 ([3]; U373) of 50 to 100 µM.
